Legend:
d4 PGCLC = assay: Expansion culture of d4 PGCLC on m220-5 feeder (cell number fold increase); type: cell-based, mouse
Experimental: (§1) Since the m220-5 feeder treated with MMC was vulnerable to forskolin and rolipram, m220-5 cells were subcultured 3 times with both forskolin and rolipram each at 10 μM and adapted to these compounds before MMC treatment (1-2 μg/ml for 2 hr). d4 PGCLC or E9.5 PGC(BDF1×Stella-EGFP) was selected by FACS, and the cells were seeded on m220-5 cells in GMEM medium containing 10% KSR, 0.1 mM NEAA, 1 mM sodium pyruvate, 0.1 mM 2-mercaptoethanol, 100 U/ml penicillin, 0.1 mg/ml streptomycin, 2 mM L-glutamine, 2.5% FCS, 100 ng/ml SCF, 10 μM forskolin, and 10 μM rolipram. Half of the culture medium was changed every 2 days.
(§2) Expansion culture of PGC/PGCLC to investigate the combined effect of cyclosporin A (CsA) was performed as in Example [I], except that 5 μM CsA was added to the medium in addition to 10 μM forskolin and 10 μM loripram (FR10).

PGCLC = assay: CsA or FK506 alone at various concentrations on PGCLC proliferation (fold difference d7/d1); type: cell-based, mouse; conditions: 10, 5, 1, 0 μM tested, without FR10
[1] = system: testes of neonatal W/Wv mice; assay: Transplantation of amplified PGCLC into testes of neonatal W/Wv mice (spermatogenesis, offspring); type: in vivo, mouse; conditions: d4c7 PGCLC; neonatal W/Wv recipients
Experimental: After purification of PGCLC by FACS, 1×10^4-1×10^5 cells per testis were injected into the testes of randomly selected neonatal (7 days old) or adult W/W^v mouse, as previously reported (Chuma et al, 2005). Where necessary, anti-mouse CD4 antibody ([…] per dose, clone GK1.5; Biolegend) was injected intraperitoneally on day 0, 2 or 4 for immunosuppression (Kanatsu-Shinohara et al, 2003). To assess pregnancy, recipients at 10 weeks post-transplant were mated with BDF1 females. The genotype of BVSC transgene progeny was determined as previously reported (Ohinata et al, 2008). For HE staining, testis or epididymis was fixed with Bouin's solution and embedded in paraffin, and sections were produced.
Spermatozoons were collected from the cauda epididymis and pre-incubated in HTF medium (Kyudo Co., Ltd.) for 1 hr at 37° C. Eggs were collected from BDF1 females that were superovulated by injecting PMSG and hCG and fertilized with sperm in HTF medium. The obtained 2-cell embryos were transferred to the fallopian tube of pseudopregnant ICR females 0.5 days after pregnancy (dpc). Pups were delivered by cesarean section at 18.5 dpc.
Spermatozoons were collected from the mouse testis that received transplantation of PGCLC by the method described in Example [I], and directly injected with a micromanipulator into the ovum collected from BDF1 females that were superovulated by injecting PMSG and hCG. […]

cultured PGCLC [2] = assay: Cell cycle analysis of cultured PGCLC (BrdU/EdU, FACS); type: cell-based, mouse; conditions: FR10+CsA compared to FR10 alone
Experimental: The cell cycle status of ESC, EpiLC, d4, d4c3, d4c5 and d4c7 PGCLC(BDF1-2) at E13.5, E14.5 and E15.5 and male germ cells was examined in the same manner as in a previous report (Kagiwada et al, 2013). To label the cultured cells, the cells were incubated with BrdU (10 μM) for 30 min. To label gem cells, female mice (ICR) were mated with Stella-EGFP males and pregnant females were intraperitoneally injected with 1 mg BrdU and embryos were harvested 30 min later. Cultured cells or male gonads were dispersed in single cells by TrypLE treatment. To detect BrdU uptake, the APC-BrdU Flow Kit (BD Biosciences) was used according to the manufacturer's instructions. The stained samples were analyzed using BD FACSAriaIII (BD) with FACS Diva (BD) software, and PGCLC or male gem cells were respectively identified by BV or Stella-EGFP fluorescence. Three biological replicates were analyzed for each sample.
The analysis was performed as in Example [I] except that EdU (10 μM) was used in place of BrdU, and Click-iT™ Plus EdU Alexa Fluor™ 647 Flow Cytometry Assay Kit (Thermo Fisher Scientific) was used for detection of EdU uptake.

BV (+) d4 PGCLCs = assay: Compound library screening for PGCLC proliferation (BV fluorescence by cell analyzer); type: cell-based, mouse; conditions: three CsA entries in the screening data, two exceeded; 10 μM and 1 μM
Experimental: d4 PGCLC was seeded by FACS on m220-5 feeders in 96-well plates and BV fluorescence was monitored by cell analyzer (Cellavista; SynenTec). Fluorescence photograph for BV was taken by Cellavista cell analyzer with the following settings: 10× objectives; exposure time: 140 μsec; gain: 4×; binning: 4×4; excitation: 500/24 nm; emission: 542/27 nm. BV fluorescence was detected using the following algorithm/attribute parameters: sensitivity: 10; region merging: 200; min. granule intensity: 50; well edge distance: 200; contrast: 1; size: 3,000; intensity: 255; roughness: 500; granularity: 100; granule intensity: 255; granule count: 10,000; longishness: 100; compactness: 1. The value of “cell nucleus” was used for the detection of BV fluorescence.
The compound library was screened at concentrations of 10 μM and 1 μM. […] 200 BV (+) d4 PGCLCs induced from BDF1-2 ESC were seeded in the wells of a 96-well plate, and BV fluorescence was measured on the Cellavista cell analyzer on day 1 of culture (c1), c3, c5 and c7. The value of “cell nucleus” was used for the detection of BV fluorescence. […] For each compound, the fold difference in BV fluorescence between c1 and c7 was calculated for each compound and compounds with a fold difference value exceeding 3SD of the mean of the negative control were identified as those that potentiate PGCLC proliferation.

E9.5 PGC = assay: Expansion culture of E9.5 PGC on m220-5 feeder; type: cell-based, mouse; conditions: CsA in addition to forskolin and PDE4 inhibitor (FR10)
Experimental: as §1, §2

d4c7 PGCLC = assay: Detection of apoptotic cells (Annexin V); type: cell-based, mouse; conditions: FR10+CsA compared to FR10 alone
Experimental: d4c7 PGCLC cultured in FR10 or FR10+CsA was dispersed in single cells by TrypLE treatment, and stained using Annexin V Apoptosis Detection Kit APC (eBioscience) according to the manufacturer's instructions. The stained samples were analyzed using BD FACSAriaIII (BD) with FACSDiva (BD) software, and PGCLC was identified by BV fluorescence. Three biological replicates were analyzed for each sample.

[3] = system: PGCLCs induced from BVSCVR ESC (XX); assay: BVSC and VR expression by FACS in cultured PGCLC; type: cell-based, mouse; conditions: added at c3, read at c9; varying concentrations
Experimental: (§3) The PGC/PGCLC expansion medium was constituted of 10% KSR, 2.5% FBS, 0.1 mM NEAA, 1 mM sodium pyruvate, 2 mM L-glutamine, 0.1 mM 2-mercaptoethanol, 100 U/ml penicillin, 0.1 mg/ml […] streptomycin, […] forskolin, and 10 μM rolipram. The entire medium was changed every 2 days from c3. Cytokines/compounds for induction of female fate were provided from c3 to the end of culture. RA and BMP concentrations used were 100 nM and 300 ng/ml, respectively, unless otherwise specified. Brightfield and fluorescence images were captured using an IX73 inverted microscope (Olympus).
(§4) The preparation of d4/c0 PGCLC for FACS is described in “ESC culture/induction and PGCLC induction/culture”. To isolate germ cells in vivo, fetal gonads of BVSC, VR or SG mice were cut and processed for FACS according to the procedure described for d4/c0 PGCLC. Culture PGCLC was also prepared by the same method except that, after dissociation, the cells were washed with 0.1% BSA-DMEM containing 100 μg/ml DNase (Sigma-Aldrich), lysed DNA from dead cells was digested to prevent the formation of cell/debris clumps. Fluorescent activity of BV/SG, SC, or DT/VR was detected with FITC, Horizon V500 or PE-Texas Red channels, respectively. FACS data was analyzed using FlowJo or FACS Diva software package.

[4] = system: PGCLC induced from BVSCDT ESC(XY); assay: Screening for factors inducing female germ cell fate: DT and BV expression by FACS at c7; type: cell-based, mouse; conditions: added from c3, read at c7; RA 100 nM, cytokines 500 ng/ml; BMPs in combination with RA
Experimental: as §3, §4
In the signal inhibitory experiment, LDN193189 (#04-0074; Stemgent) and BMS493 (B6688; Sigma-Aldrich) dissolved in DMSO were used as ALK2/3 inhibitor and RAR inhibitor, respectively.

BV/SC(+) cells = assay: Cell cycle analysis by EdU and 7AAD uptake in PGCLC culture; type: cell-based, mouse; conditions: RA alone; c9
Experimental: Cell cycle analysis was performed using the Click-iT EdU Flow Cytometry Assay Kit (C10424; Thermo Fischer Scientific) according to the manufacturer's instructions. Cultured PGCLC was treated with 10 μg/ml EdU for 30 min to 2 hr and analyzed by FACS.

cultured PGCLC [5] = assay: Immunofluorescence analysis of STRA8, SCP3, DDX4 in cultured PGCLC; type: cell-based, mouse
Experimental: as §3
(§5) Immunofluorescence (IF) analysis was performed as described previously (Hayashi et al, 2012). The following primary antibodies were used: chicken anti-GFP (ab13970; Abeam), rabbit anti-DDX4 (ab13840; Abeam), mouse anti-DDX4 (ab27591; Abeam), rabbit anti-DAZL (ab34129; Abeam), goat anti-DAZL (sc-27333; Santa Cruz), rabbit anti-STRA8 (ab49602; Abeam), mouse anti-SYCP3 (ab97672; Abeam) and rabbit anti-TEX14 (ab41733; Abeam)IgG. The following secondary antibodies were used: Alexa Fluor 488-goat anti-mouse or chicken IgG; Alexa Fluor 568-goat anti-rabbit IgG and Alexa Fluor 633-goat anti-mouse, anti-chicken IgG; Alexa Fluor 488-donkey anti-mouse IgG; Alexa Fluor 568-donkey anti-rabbit IgG and Alexa Fluor 633-donkey anti-goat IgG. IF images were acquired using a confocal microscope [FV1000 (Olympus) or LSM780 (Zeiss)].

PGC at E11.5 = assay: Ex vivo culture of E11.5 PGC, SCP3/DDX4/SG expression at c4; type: cell-based, mouse; conditions: cultured 4 days; RA alone
Experimental: as §5

Row | Molecule | proliferation of PGCLC on average with CsA added (d4 PGCLC; 5 μM CsA in addition to forskolin and PDE4 inhibitor (FR10)) | colony morphology and BVSC expression of expanded cells (d4 PGCLC; expansion culture on m220 feeder) | most optimal concentration for growing PGCLCs (PGCLC) | function of amplified PGCLC after transplantation into testes [1] | percentage of S-stage cells (cultured PGCLC [2]) | fold difference (d7/d1) of BV signal in compound library screening (BV (+) d4 PGCLCs) | proliferation of E9.5 PGC with CsA added (E9.5 PGC) | percentage of apoptotic cells (d4c7 PGCLC) | BVSC and VR expression [3] | DT and BV expression in BV (+) cells [4] | entry into meiosis by cell cycle profile (BV/SC(+) cells) | BV/SC(+) cells expressing STRA8 (cultured PGCLC [5]; RA alone) | induction of VR/DDX4 and SCP3 (+) cells (meiotic entry) (cultured PGCLC [5]; cultured PGCLC, c9, BMP4, 5, 7 combined with RA, BMS493 with BMP2, LDN193189 with RA and BMP2) | induction of SCP3 (PGC at E11.5)
1 | cyclo{-[(2S,3R,4R,6E)-3-hydroxy-4-methyl-2-methylaminooct-6-enoyl]-L-2-aminobutanoyl-N-methylglycyl-N-methyl-L-leucyl-L-valyl-N-methyl-L-leucyl-L-alanyl-D-alanyl-N-methyl-L-leucyl-N-methyl-L-leucyl-N-methyl-L-valyl-} [CsA] | about 50 fold | formed flat colonies and strongly expressed BVSCs | 5 µM | capable of differentiating into functional spermatozoa | increased percentage of S-stage | > 3 SD | about 16 fold | decreased percentage of apoptotic cells |  |  |  |  |  | 
2 | CC1=C(/C=C/C(C)=C/C=C/C(C)=C/C(=O)O)C(C)(C)CCC1 [RA, all trans retinoic acid] |  |  |  |  |  |  |  |  | did not activate VR | increased DT levels | did not go into meiosis even in c9 | ~77.7% | did not activate VR/DDX4 or SCP3 | Neither control culture nor culture with RA alone induced SCP3
